Experimental data: US4011332A, “Hemorrhagic-lesion producing and anticoagulant-containing compositions and their use” (priority 1974, dated 1977)
Like-named read-outs stand apart in the source and are kept apart here.

Tests used:
Sprague-Dawley rats [1] = conditions: for LD50 oral, in combination with component (b) 2 mg/kg: with 2 mg/kg 1-phenyl-3,5-di-(2-thienyl)-4-pyrazole acetic acid; for LD50 oral, in combination with component (b) 1 mg/kg: with 1 mg/kg 1-phenyl-3,5-di-(2-thienyl)-4-pyrazole acetic acid
Method: *Ingestion volume: 5 ml/kg, period of observation: 10 days

Sprague-Dawley rats [2] = assay: animal or person; type: in vivo; conditions: for LD100 (interpolated): component (b) with 2 mg/kg 4-hydroxy-2-oxo-3-(1-phenylpropyl)-2H-chromene, single oral dose, 10 days
Excerpt: Note the number of animals which die within 10 days of the respective administrations.

Sprague-Dawley rats [3] = assay: LD5 determination / hemorrhagic stomach and gut lesions after single oral dose; conditions: for LD5: single oral dose, Sprague-Dawley rats, empty stomach; for LD5 (criterion for rat strain to be used): rat strain advisable for the test
Method: A selection of compounds from those suitable for component (b) is, however, made in a simpler manner by determining the LD5 (in mg/kg). […] Determination of the cause of death is effected, e.g., by autopsy of the dead animals.
The rats were kept in groups of 5 and four animals in plastic cages of the type M III. The room temperature was maintained at approximately 23° C. For determining the lethal doses, as mentioned in the following description, the rats were fed on empty stomachs. The animals received the noted compounds [for example, component (a) or (b) or the composition containing both] in a volume of liquid amounting to 5 ml per kg of body weight of the rat. The administration of the liquid was carried out once using a feeding tube introduced into the oesophagus. The doses of the active substances [component (a), component (b) or the composition] were varied. Component (b) was administered as a sodium salt in aqueous solution, and the number of animals which died within 10 days after administration was noted.
The lethal doses (LD5, LD50 and LD100 in mg/kg) were determined by simple linear regression, while the limits of trust were determined by the method of Litchfield and Wilcoxon.
Thereafter autopsy the dead animals to determine the cause of death.

[4] = system: wild rats (Rattus norvegicus and Rattus ratus); assay: LD100 of combinations in wild rats, single oral dose (Example 3); type: in vivo; conditions: full stomachs, 10 days
[5] = system: female Sprague-Dawley rats; assay: Rodenticidal bait test, mortality in 10 days (Example 12, Table IV); type: in vivo; conditions: one day, 10 days observation
Excerpt: Following the rules for the examination of rodenticides against rats and mice (edited by Bundesgeshundheitsamt, Institut fuer Wasser-, Boden- und Lufthygiene, Biologische Bundesanstalt fur Land- und Forstwirtschaft, Staatliches Medizinaluntersuchungsamt, Abt. fuer hygienische Schadlingsbekampfung), female Sprague-Dawley rats weighing about 200 grams, kept in single boxes, were provided with the rodenticidal active substances* alone or in combination (expressed in mg/kg) in 4 grams of bait per rat, i.e. 20 g of bait/kg of body weight. These soft consistent, i.e. not crumbly, baits were prepared from Semmelmehl (i.e. powder prepared by grinding dry white bread) and some water. The rats on an empty stomach were provided with these baits as the only food during one day, tap water was ad libitum.
* 4-hydroxy-2-oxo-3-(3-oxo-1-phenyl-butyl)-2H-chromene and 1,5-diphenyl-3-(p-chlorophenyl)-4-pyrazole acetic acid
Thereafter, the animals were provided with usual standard diet Atromine R for the remaining duration of the test.
The mortality rate was determined during a test period of 10 days.

[6] = alone, 5 ml/kg, observation 10 days

Row | SMILES | LD100 (interpolated) (Sprague-Dawley rats [2]) | LD5 (Sprague-Dawley rats [3]) | further results
1 | CC(C)(C)C(=O)C1C(=O)c2ccccc2C1=O [Component 1.4, 2-pivaloyl-1,3-indandione] |  |  | LD50 oral, alone (Sprague-Dawley rats [1]; [6]): above 5 mg/kg of body weight; LD50 oral, in combination with component (b) 2 mg/kg (Sprague-Dawley rats [1]; 5 ml/kg, observation 10 days): above 1 mg/kg of body weight
2 | O=C1c2ccccc2C(=O)C1c1ccccc1 [2-phenylindandione-(1,3)] |  |  | LD50 oral, alone (Sprague-Dawley rats [1]; [6]): above 100 mg/kg of body weight; LD50 oral, in combination with component (b) 2 mg/kg (Sprague-Dawley rats [1]; 5 ml/kg, observation 10 days): not less than 50 mg/kg of body weight
3 | CC(C(=O)O)c1ccc(C2CCCCC2)c(Cl)c1 (single isomer, unassigned) [N, d(+)-3-chloro-4-cyclohexyl-α-methyl-phenylacetic acid] | 5 to 10 mg/kg | < 15 mg/kg of body weight | 
4 | O=C(O)Cc1c(-c2ccc(Cl)cc2)nn(-c2ccccc2)c1-c1ccccc1 [B, 1,5-diphenyl-3-(p-chlorophenyl)-4-pyrazole acetic acid] | 1.5 mg/kg | < 5 mg/kg of body weight | 
5 | CN1C(=O)C(C(=O)Nc2ccc(F)cc2F)c2ccccc21 (stereo not drawn) [P, 1-methyl-2',4'-difluoroxindole-3-carboxanilide] |  | < 50 mg/kg of body weight | 
6 | O=C(O)Cc1c(-c2cccs2)nn(-c2ccccc2Cl)c1-c1cccs1 [M, 1(o-chlorophenyl)-3,5-(2-thienyl)-4-pyrazole acetic acid] | 10 to 50 mg/kg | < 15 mg/kg of body weight | 
7 | O=C(O)Cc1c(-c2cccs2)nn(-c2ccc(Cl)cc2)c1-c1cccs1 [D, 1-(p-chlorophenyl)-3,5-di-(2-thienyl)-4-pyrazole acetic acid] | 5.0 mg/kg | < 5 mg/kg of body weight | 
8 | CCC(c1ccccc1)c1c(O)c2ccccc2oc1=O (stereo not drawn) [Component 1.1, 4-hydroxy-2-oxo-3-(1-phenylpropyl)-2H-chromene, reference compound] |  |  | LD100 (Sprague-Dawley rats [2]; Rattus norvegicus, po, 240 h, anticoagulant alone, Sprague-Dawley rats): 17 mg/kg; LD50 oral, alone (Sprague-Dawley rats [1]; [6]): 3.0 mg/kg of body weight; LD50 oral, in combination with component (b) 1 mg/kg (Sprague-Dawley rats [1]; 5 ml/kg, observation 10 days): 1.7 mg/kg of body weight; LD50 oral, in combination with component (b) 2 mg/kg (Sprague-Dawley rats [1]; 5 ml/kg, observation 10 days): 0.55 mg/kg of body weight; LD100 ([4]; Rattus norvegicus, 240 h, component (b) 0 mg/kg): 45 mg/kg; LD100, component (a) in combination ([4]; with component (b) 1.5 mg/kg): 4 mg/kg of rat body weight; LD100, component (a) in combination ([4]; with component (b) 2 mg/kg): 3 mg/kg of rat body weight; LD100, component (a) in combination ([4]; with component (b) 3 mg/kg): 2 mg/kg of rat body weight
9 | CN1C(O)=C(C(=O)Nc2ccc([N+](=O)[O-])cc2)c2ccccc2S1(=O)=O [R, n-(4-nitrophenyl)-3-hydroxy-2-methyl-2H-1,2-benzothiazine-4-carboxamide-1,1-dioxide] |  | < 50 mg/kg of body weight | 
10 | O=C(O)Cc1c(-c2ccccc2)nn(-c2ccccc2)c1-c1ccccc1 [C, 1,3,5-triphenyl-4-pyrazole acetic acid] | 3.0 mg/kg | < 5 mg/kg of body weight | 
11 | CC(=O)Oc1ccccc1C(=O)O [K, acetylsalicylic acid, reference compound] |  | above 100 mg/kg of body weight | 
12 | CN1C(O)=C(C(=O)Nc2ccc(Br)cc2)c2ccccc2S1(=O)=O [Q, n-(4-bromophenyl)-3-hydroxy-2-methyl-2H-1,2-benzothiazine-4-carboxamide-1,1-dioxide] |  | < 50 mg/kg of body weight | 
13 | COc1ccc(-c2c(CC(=O)O)c(-c3ccccc3)nn2-c2ccccc2)cc1 [G, 1,3-diphenyl-5-(p-methoxyphenyl)-4-pyrazole acetic acid] | ~ 10.0 mg/kg | < 15 mg/kg of body weight | 
14 | COc1ccc(-n2nc(-c3ccccc3)c(CC(=O)O)c2-c2ccccc2)cc1 [H, 3,5-diphenyl-1-(p-methoxyphenyl)-4-pyrazole acetic acid] | ~ 10.00 mg/kg | < 15 mg/kg of body weight | 
15 | CN1C(C(=O)Nc2nccs2)=C(O)c2ccccc2S1(=O)=O [L, n-(2-thiazolyl)-4-hydroxy-2-methyl-2H-1,2-benzothiazine-3-carboxamide-1,1-dioxide] | ≤ 20.00 mg/kg | < 50 mg/kg of body weight | 
16 | CCCCC1C(=O)N(c2ccccc2)N(c2ccccc2)C1=O [phenylbutazone, reference compound] |  |  | LD5 (criterion for rat strain to be used) (Sprague-Dawley rats [3]): 600 mg/kg of body weight
17 | O=C(O)Cc1c(-c2ccco2)nn(-c2ccccc2)c1-c1ccco1 [O, 1-phenyl-3,5-di-(2-furyl)-4-pyrazole acetic acid] | ~ 50 mg/kg | < 50 mg/kg of body weight | 
18 | COc1ccc2c(c1)c(CC(=O)O)c(C)n2C(=O)c1ccc(Cl)cc1 [E, reference compound] | 7.5 mg/kg | < 15 mg/kg of body weight | LD5 (criterion for rat strain to be used) (Sprague-Dawley rats [3]): approximately 7 mg/kg of body weight
19 | CC(=O)CC(c1ccccc1)c1c(O)c2ccccc2oc1=O (stereo not drawn) [Component 1.2, 4-hydroxy-2-oxo-3-(3-oxo-1-phenylbutyl)-2H-chromene] |  |  | LD50 oral, alone (Sprague-Dawley rats [1]; rat, in vivo, po, 240 h): 7.0 mg/kg of body weight; LD50 oral, in combination with component (b) 1 mg/kg (Sprague-Dawley rats [1]; 5 ml/kg, observation 10 days): 4 mg/kg of body weight; LD50 oral, in combination with component (b) 2 mg/kg (Sprague-Dawley rats [1]; 5 ml/kg, observation 10 days): 0.4 mg/kg of body weight; % of Animals which Died ([5]; Component 1.2 100 mg/kg in bait): 80%; % of Animals which Died ([5]; Component 1.2 200 mg/kg in bait): 80%
20 | O=C(O)c1ccccc1O [I, salicylic acid, reference compound] |  | above 100 mg/kg of body weight | 
21 | O=C(O)Cc1c(-c2cccs2)nn(-c2ccccc2)c1-c1cccs1 [A, 1-phenyl-3,5-di-(2-thienyl)-4-pyrazole acetic acid] | ~ 2.0 mg/kg | < 5 mg/kg of body weight | LD100, component (b) ([4]; component (a) 0 mg/kg): 7 mg/kg of rat body weight; LD100, component (b) in combination ([4]; with component (a) 2 mg/kg): 3 mg/kg of rat body weight; LD100, component (b) in combination ([4]; with component (a) 3 mg/kg): 2 mg/kg of rat body weight; LD100, component (b) in combination ([4]; with component (a) 4 mg/kg): 1.5 mg/kg of rat body weight
22 | O=C(O)Cc1c(C2CCCCC2)nn(-c2ccccc2)c1-c1ccccc1 [F, 3-cyclohexyl-1,5-diphenyl-4-pyrazole acetic acid] | 7.5 mg/kg | < 15 mg/kg of body weight | 
23 | CC(=O)CC(c1ccc([N+](=O)[O-])cc1)c1c(O)c2ccccc2oc1=O (stereo not drawn) [Component 1.6, 4-hydroxy-2-oxo-3-[3-oxo-1-(4-nitrophenyl)butyl]-2H-chromene] |  |  | LD50 oral, alone (Sprague-Dawley rats [1]; [6]): above 100 mg/kg of body weight; LD50 oral, in combination with component (b) 2 mg/kg (Sprague-Dawley rats [1]; 5 ml/kg, observation 10 days): 1.3 mg/kg of body weight
